Measured values as given in patent US11286271B2, “Iridium (III) complexes containing N-heterocyclic carbene ligand, synthesis, and their use thereof in cancer treatment” (The University of Hong Kong, priority 2018, dated 2022).

Assays:
[1] = test system: NCI-H460 lung cancer cells; experiment: Cytotoxicity and photocytotoxicity, MTT assay, NCI-H460 in dark or under visible light; type: cell-based, human; conditions: for PI = IC50(dark)/IC50(light): NCI-H460, phototoxicity index
Method: FIG. 12A-12G. Plots of cell viability of NCI-H460 lung cancer cells upon 72 h treatment with the iridium(III) porphyrin complexes and cis-platin in dark or under light irradiation (2.8 mW cm^−2 for 1 h).
NCI-H460 lung cancer cells incubated with the complexes were exposed to a low dose of visible light irradiation (2.8 mW cm^−2) for 1 h. […] The cytotoxicity of [Ir^III(oep)Cl(CO)] was also evaluated for comparison.

[2] = in CHCl3, reference standard; cited from earlier work
[3] = test system: HepG2; experiment: In vitro cytotoxicity, MTT assay, HepG2; type: cell-based, human; conditions: 72 h incubation
[4] = Lipophilicity, n-octanol / saline partition; type: physicochemical; conditions: n-octanol / saline solution (0.9% w/v), by amount of iridium
[5] = test system: MCF-7; experiment: In vitro cytotoxicity, MTT assay, MCF-7; type: cell-based, human; conditions: 72 h incubation
[6] = test system: panel of human cancer cell lines; experiment: Cytotoxicity towards a panel of human cancer cell lines; conditions: summary of Table 2
[7] = test system: NCI-H460 lung cancer cells; experiment: Cellular ROS generation by DCF fluorescence (H2DCF-DA probe); type: cell-based, human; conditions: 1 μM, 2 h, visible light irradiation
Method: (A) Generation of ROS examined by DCF fluorescence measurement in NCI-H460 cells treated with or without iridium(III) porphyrin complexes (1 μM) for 2 h with or without irradiation by visible light.
To examine the relationship between photocytotoxicity and the photosensitizing properties of the complexes, we measured the cellular reactive oxygen species (ROS) generation using the ROS probe H2DCF-DA after treatment of cancer cells with the iridium(III) porphyrin complexes.

[8] = test system: peptide ([…]) from thioredoxin (Trx); experiment: Photoinduced oxidation of Trx model peptide by ESI-MS/MS; type: biochemical; conditions: peptide 20 μM, complex 10 μM, light irradiation 1 h
Excerpt: A peptide ([sequence]) from thioredoxin (Trx) was employed as a model to investigate the possible oxidative modification sites by electrospray ionization tandem mass spectrometry (ESI-MS/MS).

[9] = test system: NCI-H460 lung cancer xenografts; conditions: 3.0 mg/kg intratumoral
Excerpt: FIGS. 9A-9D. […] (A) Tumor volume. (B) Body weight of mice. (C) Tumor weight after the experiment. […] (D) Photo of tumors of each group after treatment for 15 days. Data are expressed as the mean±standard error; **p<0.01.
(§1) The other two groups of mice received the same treatment without irradiation as a control.

[10] = Singlet oxygen generation quantum yield from 1O2 emission; type: physicochemical; conditions: oxygen-saturated CHCl3, referenced to H2tpp
[11] = test system: NCI-H460 human non-small cell lung cancer xenografts; experiment: In vivo antitumor activity, intravenous injection, NCI-H460 xenograft; conditions: 3 mg/kg intravenous thrice weekly, 16-day treatment
Method: (A) Tumor volume and (B) body weight of mice. Data are expressed as the mean±standard error; *p<0.05.
Nude mice bearing NCI-H460 human non-small cell lung cancer xenografts were administered 102 (3 mg/kg) via intravenous injection thrice weekly.

[12] = test system: NCI-H460 cells; experiment: Apoptosis by annexin-V-FITC/propidium iodide flow cytometry; type: cell-based, human; conditions: 0.1 μM
Excerpt: (§2) FIGS. 8A-8C. […] (A) Apoptosis/necrosis in NCI-H460 cells as examined by flow cytometry of annexin-V-FITC/propidium iodide-stained cells. (B) Cell cycle progression in NCI-H460 cells as examined by flow cytometry. (C) Inhibition of angiogenesis of MS-1 endothelial cells.
as §1

[13] = test system: NCI-H460 cells; experiment: Cell cycle progression by flow cytometry; type: cell-based, human; conditions: 0.1 μM
Excerpt: as §2, §1

[14] = test system: MS-1 endothelial cells; experiment: Inhibition of endothelial cell tube formation (angiogenesis); type: cell-based; conditions: 0.1 μM
Excerpt: as §2, §1

[15] = test system: NCI-H460 cells; experiment: Subcellular localization by confocal microscopy imaging; conditions: 1 μM, 2 h, NCI-H460, ER-Tracker green

For `N.N.[Cl][Pt][Cl]` [Cisplatin], the “PI = IC50(dark)/IC50(light)” value [1] was 0.72 and the “PI = IC50(dark)/IC50(light)” value ([1]; listed as cisplatin) was < 1.

For `C1=Cc2nc1c(-c1ccccc1)c1ccc([nH]1)c(-c1ccccc1)c1nc(c(-c3ccccc3)c3ccc([nH]3)c2-c2ccccc2)C=C1` [Complex H2tpp, H2tpp], the “Quantum yield of singlet oxygen generation (Φso), reference” value [2] is listed as 0.55.

With `CCC1=C(CC)C2=NC1=Cc1c(CC)c(CC)c3[n]1[Ir+][n]1c(c(CC)c(CC)c1=CC1=NC(=C3)C(CC)=C1CC)=C2.F[B-](F)(F)F.[C-]#[N+]c1ccc(OC)cc1.[C-]#[N+]c1ccc(OC)cc1` [[Ir^III(ope)(CNPhOMe)2](BF4)] the IC50 [3] was > 100 µM, the “Log P” value [4] was 2.81 and the IC50 [5] was > 100 µM. For the same compound, the “Cytotoxicity / IC50 in words, panel of human cancer cell lines” value [6] was “reduced cytotoxicity” and the “PI = IC50(dark)/IC50(light)” value [1] was 24.2.

For [Ir^III(oep)(IMe)2](OTf) [Complex 102], the “Elevation in ROS levels” value [7] was 10 fold, the “Oxidative modification of Trx peptide” value [8] was “undergo oxidative modifications” and the “Tumor weight, photoirradiation group vs dark control group” value ([9]; after 15 days) was “much lower”. The “Changes in body weight” value ([9]; with or without irradiation, 15 days) was “negligible changes in body weight”, the “Quantum yield of singlet oxygen generation (Φso)” value [10] was 0.88 and the “Toxicity incl. body weight loss and death” value [11] was “without apparent toxicity”. The Tumor size reduction [11] was 41%, the “Proportion of cells undergoing apoptotic cell death, without irradiation” value ([12]; dark) was 5.9% and the “Proportion of cells undergoing apoptotic cell death, light irradiation” value ([12]; visible light irradiation) was 81.7%. The G0/G1-population ([13]; dark (increase from 59.6%)) was 66.3%, the “sub-G1 population, visible light irradiation” value ([13]; visible light irradiation) was 96.9% and the “sub-G1 population, before irradiation” value ([13]; without light) was 2.2%. For the same compound, the “MS-1 cell tube formation, dark” value ([14]; dark) was “moderate inhibition”, the “MS-1 cell tube formation, light irradiation” value ([14]; light irradiation) was “completely abrogated” and the “Pearson's correlation coefficient (R) with ER-Tracker” value [15] was 0.903.

With “[Ir^III(oep)(I^iPr)2](PF6) [Complex 103]” the “IC50 upon light irradiation, in words” value ([1]; NCI-H460, visible light 2.8 mW cm^−2, 1 h) was “nanomolar”.

In the case of [Ir^III(oep)Cl(CO)], the “Log P” value [4] is reported as 2.38, the “PI = IC50(dark)/IC50(light)” value [1] is reported as >2.5 and the IC50 ([1]; dark, MTT assay, 72 h) is reported as > 50 µM.

For [Ir^III(ttp)(IMe)2](ORf) [Complex 101], the “Quantum yield of singlet oxygen generation (Φso)” value [10] was 0.64.
